pIC50: −log10 of the molar value.
Tests used:
Experiment in all cases: biochemical
Design in all cases: radiometric methyltransferase assay with tritiated SAM, IC50
PRMT1 = PRMT1 (Homo sapiens, UniProt Q99873)
Method: (§1) The methyltransferase selectivity was assessed at two compound concentrations of 1 and 10 μM by radiometric assays using tritiated-SAM. For methyltransferases: MLL1, MLL3, EZH1 (PRC2), and EZH2 (PRC2), G9a, GLP, SUV39H1, SUV39H2, SUV420H1, SUV420H2, SETD2, SETD8, SETDB1, SETD7, PRMT1, PRMT3, PRMT4, PRMT5/ MEP50 complex, PRMT6, PRMT7, PRMT8, PRMT9, PRDM9, SMYD2, SMYD3, DNMT1, and BCDIN3D the incorporation of a tritium-labeled methyl group into biotinylated substrate was monitored using scintillation proximity assay (SPA). Briefly, a 10 μL reaction containing ^3H-SAM and substrate at concentrations close to the apparent Km values for each enzyme (balanced conditions) was prepared. The reactions were quenched with 10 μL of 7.5 M guanidine hydrochloride; 180 μL of 20 mM Tris buffer (pH 8.0) were added, and the mixture was transferred to a 96-well FlashPlate and incubated for 1 h. The counts per minute (CPM) was measured on a TopCount plate reader. The CPM in the absence of compound or enzyme was defined as 100% activity and background (0%), respectively, for each dataset[74]–[76]. Selectivity of SGC8158 against 342 kinases was evaluated in a kinase panel TR-FRET assay at 1 and 0.1 μM compound in duplicates as described before. Briefly, tagged kinases were incubated with compound and staurosporine-based fluorescent probe where the binding was detected using Tb conjugated anti-tag antibody energy transfer to the probe. Excitation wavelength was 337 nm and fluorescent emission signal was measured for Tb (486 nm) and fluorescent probe (BODIPY, 515 nm). Specific and non-specific binding was determined in the absence and presence of unlabeled staurosporine. Assays using biotinylated H2B (23–37) as a substrate were performed in buffer (20 mM Tris–HCl, pH 8.5, 0.01% Tween-20, and 5 mM DTT) containing 5 nM PRMT7, 1.1 µM ^3H-SAM (Cat.# NET155V250UC; Perkin Elmer; www.perkinelmer.com) and 0.3 µM H2B (23–37). The reaction mixtures were incubated for 60 min at 23 °C. To stop the enzymatic reactions, 10 µL of 7.5 M guanidine hydrochloride was added, followed by 180 µL of buffer (20 mM Tris, pH 8.0), mixed and then transferred to a 96-well FlashPlate (Cat.# SMP103; Perkin Elmer; www.perkinelmer.com). After mixing, the reaction mixtures in Flash plates were incubated for 1 h and the CPM were measured using Topcount plate reader (Perkin Elmer, www.perkinelmer.com). The CPM counts in the absence of compound for each dataset were defined as 100% activity. In the absence of the enzyme, the CPM counts in each dataset were defined as background (0%). The IC50 values were determined using GraphPad Prism 7 software. For the kinetic analysis of HSPA8 methylation by PRMT7, the assay mixture contained 20 mM Tris–HCl, pH 8.5, 0.01% Tween-20, and 5 mM dithiothreitol (DTT), 1 mM MgCl2, 1 mM ATP where indicated, 250 nM PRMT7, fixed concentration (20 µM) of SAM, various concentrations (up to 40 µM) of HSPA8; or fixed concentration (10 µM) of HSPA8 with different concentrations of SAM (up to 20 µM). […] To determine the mode of action, the experiments were performed in the presence of fixed biotinylated H2B peptide (residues 23–37) or HSPA8 substrate concentration and increasing SAM concentration or at fixed concentration of SAM and varying concentration of the substrate. Twenty µL of reaction mixtures were incubated at 23 °C for 60 min. To stop reactions, 100 µL of 10% trichloroacetic acid (TCA) was added, mixed and transferred to filter-plates (Millipore; cat.# MSFBN6B10; www.millipore.com). Plates were centrifuged at 930 × g (Allegra X-15R—Beckman Coulter, Inc.) for 2 min followed by two additional 10% TCA washes and one ethanol wash followed by centrifugation. Plates were dried and 30 µL MicroScint-O (

PRMT4 = target: T1, PRMT4 (Homo sapiens, UniProt Q86X55)
T1 construct: gene CARM1
T1 sequence (Q86X55 1-608): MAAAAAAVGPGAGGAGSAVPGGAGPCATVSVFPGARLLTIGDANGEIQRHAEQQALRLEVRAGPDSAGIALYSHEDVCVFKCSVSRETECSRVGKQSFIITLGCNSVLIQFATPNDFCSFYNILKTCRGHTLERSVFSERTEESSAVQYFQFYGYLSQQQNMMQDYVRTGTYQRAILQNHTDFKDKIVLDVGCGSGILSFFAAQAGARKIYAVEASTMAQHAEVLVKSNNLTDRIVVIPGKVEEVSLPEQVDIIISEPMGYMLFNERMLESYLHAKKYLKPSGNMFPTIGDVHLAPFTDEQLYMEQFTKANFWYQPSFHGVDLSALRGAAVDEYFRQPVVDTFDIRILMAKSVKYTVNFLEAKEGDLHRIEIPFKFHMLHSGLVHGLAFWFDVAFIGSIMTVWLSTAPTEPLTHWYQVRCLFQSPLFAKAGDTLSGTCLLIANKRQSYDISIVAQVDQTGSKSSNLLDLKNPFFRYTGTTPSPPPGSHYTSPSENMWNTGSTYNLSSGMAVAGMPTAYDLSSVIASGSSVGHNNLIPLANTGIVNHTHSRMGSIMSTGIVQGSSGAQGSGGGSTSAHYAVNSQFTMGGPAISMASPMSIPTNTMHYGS
Method: as §1

PRMT3 = PRMT3 (Homo sapiens, UniProt O60678)
Method: as §1

Chain of PRMT3 (O60678 whole entry): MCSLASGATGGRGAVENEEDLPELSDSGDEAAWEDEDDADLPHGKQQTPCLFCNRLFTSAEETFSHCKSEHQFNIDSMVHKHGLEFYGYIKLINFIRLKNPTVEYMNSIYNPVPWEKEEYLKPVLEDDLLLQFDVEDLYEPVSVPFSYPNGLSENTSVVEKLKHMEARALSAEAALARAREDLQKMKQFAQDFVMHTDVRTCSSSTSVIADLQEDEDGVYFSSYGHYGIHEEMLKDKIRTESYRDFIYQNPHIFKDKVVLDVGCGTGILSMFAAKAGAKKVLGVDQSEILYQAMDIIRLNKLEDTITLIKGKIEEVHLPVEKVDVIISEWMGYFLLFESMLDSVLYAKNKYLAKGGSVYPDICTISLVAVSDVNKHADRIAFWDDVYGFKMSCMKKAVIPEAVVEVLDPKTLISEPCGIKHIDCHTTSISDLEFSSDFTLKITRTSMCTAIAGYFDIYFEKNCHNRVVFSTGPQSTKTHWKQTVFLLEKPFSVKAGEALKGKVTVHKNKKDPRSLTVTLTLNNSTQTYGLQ
Chain of PRMT1 (Q99873 whole entry): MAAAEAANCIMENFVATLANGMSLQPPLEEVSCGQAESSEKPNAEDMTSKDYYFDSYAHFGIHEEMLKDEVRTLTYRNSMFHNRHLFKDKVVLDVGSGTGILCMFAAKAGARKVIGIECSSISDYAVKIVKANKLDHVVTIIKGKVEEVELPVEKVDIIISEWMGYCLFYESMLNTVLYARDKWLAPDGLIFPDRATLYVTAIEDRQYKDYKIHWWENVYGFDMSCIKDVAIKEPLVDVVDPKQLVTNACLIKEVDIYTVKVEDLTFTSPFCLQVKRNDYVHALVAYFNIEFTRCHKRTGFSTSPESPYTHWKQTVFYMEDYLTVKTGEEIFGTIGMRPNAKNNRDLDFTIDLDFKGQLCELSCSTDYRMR

Nc1ncnc2c1ncn2[C@@H]1O[C@H](CSCCCNCc2cccc(-c3ccc(Cl)cc3)c2)[C@@H](O)[C@H]1O [SGC8172]
pIC50 (PRMT1): < 5.30 | pIC50 (PRMT4): 8.44 | pIC50 (PRMT3): 6.57

From PMC7224190, “Pharmacological inhibition of PRMT7 links arginine monomethylation to the cellular stress response” (Nature Communications, 2020)
